Source: US20070060607A1, “4-amino-thieno[3,2-c] pyridine-7-carboxylic acid derivatives” (priority 2005, published 2007)

Biological target: T1, c-Raf (Homo sapiens, UniProt P04049)
T1 construct: made in house; host or cells: baculovirus Hi5 insect cells, co-expressed with v-src-FLAG
Test: In vitro kinase assay: c-Raf HTRF assay with 6H-MEK as substrate
Type: biochemical
Settings: 6H-MEK substrate, dose response
Method: In vitro enzyme activity was determined with c-Raf using a HTRF assay with 6H-MEK as substrate (Dose Response).
The assay utilizes 6H-MEK as the substrate. Upon c-Raf phosphorylation, phosphorylated 6H-MEK is detected with rabbit anti-phospho-MEK1/2, Eu-labeled anti-rabbit, and APC-labeled anti-6H antibodies.
c-Raf enzyme was cloned human c-Raf with EE-tag and was phosphorylated (co-expressed with v-src-FLAG in baculovirus Hi5 cells), 0.2 mg/mL (2.74 μM assuming a molecular weight of 73 kD) and stored at −15° C. Wild-type full-length 6H-MEK was used as substrate, 4.94 mg/mL (154.4 μM assuming a MW of 32 kD) and stored at −15° C.
The following antibodies were used in the detection step: Rabbit α-P-(Ser 217/221)-MEK-1/2 Ab (from Cell Signaling, Cat. # 9121S, Lot 4); Eu-α-rabbit IgG (from Wallac, Cat. # AD0083, Lot 107557, labeling date Jun. 21, 2002, 8 Eu/protein, 580 μg/mL, 3.63 μM); α-6H-SureLight-APC (from Martek, Cat. #AD0059H, Lot E011ABO1, 3.15 μM).
Assays were read with Envision from PerkinElmer, HTRF reading mode with 412 mirrors.
Assays were performed with Costar 384 all-black plates, 120 μL (Cat. # 3710).
Test compounds were dispensed in Weidman 384 polypropylene plates (REMP).
Assay Procedure: • Prepare Kinase Assay Buffer (KAB): 50 mM HEPES (HyClone) pH7, 10 mM MgCl2, 1 mM DTT, 0.1 mM […], and 0.2 mg/mL BSA. • Prepare 6H-MEK (150 nM) in KAB. Add 40 μL/well to a Weidman plate. • Prepare ATP (66 μM) in KAB. • Prepare c-Raf (60 nM) in KAB. Add 25 μL/well to a Weidman plate. • Dilute compounds to 2.4 mM in DMSO. Perform 10-point 3× dilution in DMSO. • Withdraw 2.5 ul/well of DMSO solution and add to 27.5 μL/well ATP solution in (3). • Add 12 μL/well 6H-MEK to the assay plate on the Cybiwell, followed by 6 μL/well of solution in (5) and 6 μL/well of solution in (4) for a DMSO concentration of 2.1% during MEK phosphorylation. • Incubate at 37° C. for 30 minutes. • Prepare rabbit α-P-(Ser 217/221)-MEK-1/2 Ab (1:225 from stock) in AB1: 50 mM HEPES pH7, 0.2 mg/mL BSA, and 53 mM EDTA. • To stop reaction, add 6 μL/well of solution from (8) to the assay plate and incubate at 37° C. for 30 minutes. • Prepare Eu-α-rabbit IgG (9 nM) and α-6H-SureLight-APC (120 nM) in AB2: 50 mM HEPES pH7 and 0.2 mg/mL BSA. • Add 6 μL/well of solution from (10) to the assay plate. • For determining the spectrum cross talk factor, prepare 2 samples following steps (6) to (9). For the blank sample, add 6 μL/well of AB2. For the cross talk factor sample, add 6 μL/well of Eu-anti rabbit IgG (9 nM). • Incubate at 37° C. for 1 hour.
Read HTRF signals at 615 nm and 665 nm on the Envision. Normalize HTRF signals after spectrum cross-talk correction.

T1 sequence (P04049 whole entry): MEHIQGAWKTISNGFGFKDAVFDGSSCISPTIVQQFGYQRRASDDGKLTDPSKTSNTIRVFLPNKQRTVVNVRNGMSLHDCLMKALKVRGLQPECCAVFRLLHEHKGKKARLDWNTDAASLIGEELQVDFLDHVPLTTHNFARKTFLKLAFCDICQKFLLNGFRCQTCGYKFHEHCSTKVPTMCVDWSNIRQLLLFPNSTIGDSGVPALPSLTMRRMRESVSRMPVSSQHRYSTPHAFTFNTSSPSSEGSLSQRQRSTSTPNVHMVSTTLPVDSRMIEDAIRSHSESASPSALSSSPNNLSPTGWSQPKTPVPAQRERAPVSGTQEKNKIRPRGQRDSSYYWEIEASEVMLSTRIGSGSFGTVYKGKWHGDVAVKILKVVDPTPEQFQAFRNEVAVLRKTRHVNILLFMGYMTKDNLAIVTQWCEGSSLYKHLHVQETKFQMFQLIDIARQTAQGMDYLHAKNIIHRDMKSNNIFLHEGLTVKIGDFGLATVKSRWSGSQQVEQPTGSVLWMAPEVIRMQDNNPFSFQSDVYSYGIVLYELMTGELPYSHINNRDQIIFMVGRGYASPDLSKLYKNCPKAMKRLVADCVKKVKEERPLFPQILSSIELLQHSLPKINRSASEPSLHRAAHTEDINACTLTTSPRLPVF

IC50 [nM]	Compound
324	CCOC(=O)c1cnc(N)c2c(COc3cccc(OCc4ccc(OC)c(C(F)(F)F)c4)c3)csc12 [Example 18, 4-Amino-3-[3-(4-methoxy-3-trifluoromethyl-benzyloxy)-phenoxymethyl]-thieno[3,2-c]pyridine-7-carboxylic acid ethyl ester]
2020	CCOC(=O)c1cnc(N)c2c(COc3cccc(OCc4cccc(OC)c4)c3)csc12 [Example 14, 4-Amino-3-[3-(3-methoxy-benzyloxy)-phenoxymethyl]-thieno[3,2-c]pyridine-7-carboxylic acid ethyl ester]
22	Nc1ncc(C(=O)NCCO)c2scc(COc3cccc(OCc4cccc(Cl)c4)c3)c12 [Example 7, 4-Amino-3-[3-(3-chloro-benzyloxy)-phenoxymethyl]-thieno[3,2-c]pyridine-7-carboxylic acid (2-hydroxy-ethyl)-amide]
836	CCOC(=O)c1cnc(N)c2c(COc3cccc(OCc4ccccc4)c3)csc12 [Example 2, 4-Amino-3-(3-benzyloxy-phenoxymethyl)-thieno[3,2-c]pyridine-7-carboxylic acid ethyl ester]
